Experimental findings from patent US6455518B2 (Novartis AG, priority 1996, dated 2002) are described below.

Molecules are shown by their SMILES.

Data set [1] has as its system Spleen cells of BALB/c and CBA mice. Nature of the data set: two-way mouse mixed lymphocyte reaction (3H-thymidine incorporation). Format: cell-based. The settings on record: single compound; 3H-thymidine incorporation after four days culture. (Incorporation of labelled thymidine or its analogues reports DNA synthesis.)
Description: After four days, ^3H-thymidine is added. Sixteen hours later, the cells are harvested and ^3H-thymidine incorporation is measured by liquid scintillation counting. Cell proliferation is assessed in the absence of compounds (100% value) or in the presence of serially diluted compounds or combinations of compounds. The maximum ^3H thymidine incorporation (100% value) is around 240×10^3 cpm, and the background ^3H-thymidine incorporation in unstimulated cells is around 5×10^3 cpm. […] These IC70 values are converted into relative units with regard to the IC70 value of the respective single drug treatment.
A further data set relates to heart allograft. The data set is described as follows: heterotopic heart allotransplantation model (DA donor, Lewis recipient). Format: in vivo, rat. The source says:
The abdomen is then palpated daily to determine if the graft is still beating; in case of cessation of heartbeat, the experiment is terminated.
(§1) In both the kidney and heart allograft experiments, the termination point in long term survivors is 100 days. In all cases, the graft is removed at autopsy, fixed in buffered formalin, and embedded in paraffin. Four micron thick sections stained with hematoxylin and eosin are read for signs of rejection and scored as “no rejection”, or “marginal”, “slight”, “moderate”, or “severe” cellular rejection based on the extent of mononuclear cell infiltration and damage to the parenchyma (tubules in the kidney, myocytes in the heart).

Another data set concerns kidney allograft. Nature of the data set: orthotopic kidney allotransplantation model (DA donor, Lewis recipient). Format: in vivo, rat. The settings on record: for Histology of rejection: kidney.
Description: Kidney transplantation is followed by contralateral nephrectomy 7 days later: at nephrectomy, the graft is macroscopically inspected, and if rejection is macroscopically evident, the experiment is terminated. Surviving animals are monitored daily for clinical signs of renal dysfunction.
as §1

The conditions of data set [2]: rat, in vivo, iv.
Description: Whole blood concentrations of both compounds are determined by liquid chromatography-reversed isotope dilution (LC-RID).
[3] abbreviates: heart, 40-O-(2-hydroxyethyl)-rapamycin 5.0 mg/kg daily oral.

Regarding `CO[C@H]1C[C@@H]2CC[C@@H](C)[C@@](O)(O2)C(=O)C(=O)N2CCCC[C@H]2C(=O)O[C@H]([C@H](C)C[C@@H]2CC[C@@H](OCCO)[C@H](OC)C2)CC(=O)[C@H](C)/C=C(\C)[C@@H](O)[C@@H](OC)C(=O)[C@H](C)C[C@H](C)/C=C/C=C/C=C/1C` [40-O-(2-hydroxyethyl)-rapamycin], the “IC70 (concentration at which the maximum proliferative response is inhibited by 70%)” value in data set [1] was determined as 0.3 nM. In addition, the “minimum effective dose giving long term allograft survival” value with heart allograft (heart allograft, single compound treatment, daily oral) is more than 5.0 mg/kg; in the data set with kidney allograft (kidney allograft, single compound treatment, daily oral) it was 5.0 mg/kg. Further, the Histology of rejection entry was “severe” with heart allograft (heart, 40-O-(2-hydroxyethyl)-rapamycin 1.0 mg/kg daily oral); “moderate” in the data set with heart allograft (heart, 40-O-(2-hydroxyethyl)-rapamycin 2.5 mg/kg daily oral); “moderate” with heart allograft (setting [3]); “moderate-severe” in the data set on kidney allograft (40-O-(2-hydroxyethyl)-rapamycin 1.0 mg/kg daily oral); “slight-moderate” with kidney allograft (40-O-(2-hydroxyethyl)-rapamycin 2.5 mg/kg daily oral); “moderate; ≧100 marginal” in the data set on kidney allograft (40-O-(2-hydroxyethyl)-rapamycin 5.0 mg/kg daily oral). Besides, the “Survival (days)” value in the data set with heart allograft (setting [3]) is 22,23 days. In data set [2], the CL stood at 3.2 ± 0.3 mL/min. The t1/2 in data set [2] worked out at 56 ± 7 h. This compound had a V in data set [2] (1 mg/kg) of 52 ± 3 L/kg.
